Reference: ChEMBL document CHEMBL2157966, “Elevation of cellular O-GlcNAcylation level by a potent and selective O-GlcNAcase inhibitor based on tetrahydroimidazopyridine scaffold” (Bioorg Med Chem Lett, 2012)
The source made the active and inactive calls. The calls are words filed in the database; no cut-off is given here.

How the values were obtained:
[1] = target: T1, Protein O-GlcNAcase (Homo sapiens) (UniProt O60502); assay: Inhibition of human OGA at 100 uM
T1 sequence (whole entry): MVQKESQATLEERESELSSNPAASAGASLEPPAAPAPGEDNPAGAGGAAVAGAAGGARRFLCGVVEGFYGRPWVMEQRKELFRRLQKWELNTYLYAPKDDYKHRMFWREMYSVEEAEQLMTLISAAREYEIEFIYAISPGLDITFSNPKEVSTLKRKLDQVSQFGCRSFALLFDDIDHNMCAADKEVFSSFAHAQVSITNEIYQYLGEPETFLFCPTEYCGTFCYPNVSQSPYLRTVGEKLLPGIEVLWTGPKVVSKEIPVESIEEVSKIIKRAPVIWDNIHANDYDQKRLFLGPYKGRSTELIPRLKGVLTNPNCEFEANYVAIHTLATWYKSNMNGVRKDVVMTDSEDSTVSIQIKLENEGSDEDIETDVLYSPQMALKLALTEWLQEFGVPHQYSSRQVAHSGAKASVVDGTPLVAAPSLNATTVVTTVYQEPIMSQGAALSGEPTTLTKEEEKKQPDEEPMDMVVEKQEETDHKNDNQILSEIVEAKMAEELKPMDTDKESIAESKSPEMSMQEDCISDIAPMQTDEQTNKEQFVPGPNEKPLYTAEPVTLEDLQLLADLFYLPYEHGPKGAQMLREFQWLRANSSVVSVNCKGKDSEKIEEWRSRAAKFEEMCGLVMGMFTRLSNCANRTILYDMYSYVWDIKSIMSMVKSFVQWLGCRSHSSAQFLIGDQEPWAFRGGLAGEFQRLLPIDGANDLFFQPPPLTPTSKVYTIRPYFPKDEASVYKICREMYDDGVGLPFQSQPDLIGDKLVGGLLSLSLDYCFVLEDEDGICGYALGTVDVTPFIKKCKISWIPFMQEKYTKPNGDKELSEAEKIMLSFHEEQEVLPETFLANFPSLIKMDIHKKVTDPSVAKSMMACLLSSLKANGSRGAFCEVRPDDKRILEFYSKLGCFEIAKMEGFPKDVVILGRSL

[2] = target: T2, Protein O-GlcNAcase (Homo sapiens, UniProt O60502); assay: Competitive inhibition of human OGA using 4-MU-GlcNAc as substrate after 10 mins by Lineweaver Burk plot analysis
T2 sequence (O60502 whole entry): T1 sequence (whole entry)

[3] = target: T3, Beta-hexosaminidase subunit alpha (Homo sapiens, UniProt P06865); assay: Inhibition of human Hex A using 4-MU-GlcNAc as substrate after 10 mins by Lineweaver Burk plot analysis
T3 sequence (P06865 whole entry): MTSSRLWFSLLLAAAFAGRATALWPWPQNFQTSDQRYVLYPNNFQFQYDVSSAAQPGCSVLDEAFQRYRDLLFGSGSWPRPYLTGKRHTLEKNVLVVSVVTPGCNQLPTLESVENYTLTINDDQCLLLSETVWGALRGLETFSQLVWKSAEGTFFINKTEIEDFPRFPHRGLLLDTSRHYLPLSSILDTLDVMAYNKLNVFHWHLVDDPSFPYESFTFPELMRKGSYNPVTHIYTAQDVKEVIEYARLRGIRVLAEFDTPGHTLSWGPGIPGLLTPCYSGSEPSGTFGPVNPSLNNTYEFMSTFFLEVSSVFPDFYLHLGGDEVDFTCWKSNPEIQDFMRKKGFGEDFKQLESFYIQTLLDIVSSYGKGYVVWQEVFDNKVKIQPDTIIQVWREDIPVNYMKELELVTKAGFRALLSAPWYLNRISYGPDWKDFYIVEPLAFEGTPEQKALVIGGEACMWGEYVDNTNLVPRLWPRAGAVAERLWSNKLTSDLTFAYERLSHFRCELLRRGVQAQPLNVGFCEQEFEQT

[4] = target: T1, Protein O-GlcNAcase (Homo sapiens); assay: Inhibition of OGA in human SH-SY5Y cells assessed as increase in protein O-GlcNAcylation level after 24 hrs by Western blot analysis; assay type: cell-based
[5] = target: T1, Protein O-GlcNAcase (Homo sapiens); assay: Inhibition of OGA in human SH-SY5Y cells assessed as increase in protein O-GlcNAcylation level at 10 uM after 24 hrs by Western blot analysis; assay type: cell-based

Row | Structure (SMILES) | inhibition [1] [%] | other results
1 | OC[C@@H]1[C@@H](O)[C@H](O)[C@@H](O)c2nc(CCc3ccc(-c4ccccc4)cc3)cn21 | 84.8 | Ki [2]: 5.9 µM; Ki [3]: 163 µM; inhibition [4]: Dose-dependent effect; inhibition [5]: Active
2 | Cc1ccc(CCc2cn3c(n2)[C@H](O)[C@@H](O)[C@H](O)[C@H]3CO)cc1 | 28.3 | 
3 | CCCCCCCCc1cn2c(n1)[C@H](O)[C@@H](O)[C@H](O)[C@H]2CO | 15.3 | 
4 | OC[C@@H]1[C@@H](O)[C@H](O)[C@@H](O)c2nc(CCc3ccc(C4CCCCC4)cc3)cn21 | 56.6 | 
5 | OC[C@@H]1[C@@H](O)[C@H](O)[C@@H](O)c2nccn21 | 6.2 | 
6 | COc1ccc(CCc2cn3c(n2)[C@H](O)[C@@H](O)[C@H](O)[C@H]3CO)cc1 | 54.1 | 
7 | O=C(CCc1cn2c(n1)[C@H](O)[C@@H](O)[C@H](O)[C@H]2CO)Nc1ccccc1 | 17.1 | 
8 | OC[C@@H]1[C@@H](O)[C@H](O)[C@@H](O)c2nc(CCc3ccc(F)cc3)cn21 | 26.1 | 
9 | OC[C@@H]1[C@@H](O)[C@H](O)[C@@H](O)c2nc(CCc3ccccc3)cn21 | 6.8 | 
10 | CC(C)(CCc1cn2c(n1)[C@H](O)[C@@H](O)[C@H](O)[C@H]2CO)C(=O)Nc1ccccc1 | 2.2 | 
11 | CC(C)(C)CCc1cn2c(n1)[C@H](O)[C@@H](O)[C@H](O)[C@H]2CO | 0.4 | 
